This experiment addresses T1, human GPR119 (Homo sapiens, UniProt Q8TDV5).
T1 construct: host or cells: HEK293-CRE beta-lactamase cells
T1 sequence (Q8TDV5 1-335): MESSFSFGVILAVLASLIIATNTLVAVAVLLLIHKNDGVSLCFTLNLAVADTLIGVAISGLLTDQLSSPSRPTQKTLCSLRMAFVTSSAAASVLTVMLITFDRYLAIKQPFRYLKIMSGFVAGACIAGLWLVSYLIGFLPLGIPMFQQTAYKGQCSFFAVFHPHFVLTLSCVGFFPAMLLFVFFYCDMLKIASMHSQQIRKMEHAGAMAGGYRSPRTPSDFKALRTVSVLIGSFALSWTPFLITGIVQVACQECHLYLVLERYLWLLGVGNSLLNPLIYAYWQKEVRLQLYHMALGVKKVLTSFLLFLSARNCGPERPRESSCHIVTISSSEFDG
Kind of experiment: GPR119 radioligand binding assay ([3H]Cmpd A, membranes of HEK 293FT cells over-expressing hGPR119). The note with it: competition with 3H-Cmpd A; Ki from IC50 by Cheng-Prusoff; one line per run. As for the experimental part:
HEK 293FT cells (Invitrogen, Carlsbad, Calif.) were grown in a shake flask in 293Freestyle medium (Invitrogen) supplemented with 50 microg/mL neomycin and 10 mM HEPES (37 C, 8% carbon dioxide, shaking). The cells were centrifuged gently (approximately 500×g, 10 minutes) and the pellet resuspended in a mixture of Dulbecco's PBS(minus Mg++/−Ca++) supplemented with 18% fetal bovine serum (Sigma Aldrich) and P1 virus such that the multiplicity of infection (MOI) was 10 and the final cell density was 1.3×10^6/ml (total volume 2.5 liters). The cells were transferred to a 5 liter Wave Bioreactor Wavebag (Wave Technologies, MA) and incubated for 4 hours at 27 degrees Celsius (17 rocks/min, 7 degrees platform angle); at the end of the incubation period, an equal volume (2.5 liters) of 293Freestyle medium supplemented with 30 mM sodium butyrate (Sigma Aldrich) was added (final concentration=15 mM), and the cells were grown for 20 hours (37 degrees Celsius, 8% CO2 [0.2 liters/min}, 25 rocks/minute, 7 degrees platform angle). Cells were harvested via centrifugation (3,000×g, 10 minutes), washed once on DPBS (minus Ca++/Mg++), resuspended in 0.25M sucrose, 25 mM HEPES, 0.5 mM EDTA, pH 7.4 and frozen at −80 degrees Celsius.
The frozen cells were thawed on ice and centrifuged at 700×g (1400 rpm) for 10 minutes at 4 degrees Celsius. The cell pellet was resuspended in 20 ml phosphate-buffered saline, and centrifuged at 1400 rpm for 10 minutes. The cell pellet was then resuspended in homogenization buffer (10 mM HEPES (Gibco #15630), pH 7.5, 1 mM EDTA (BioSolutions, #BIO260-15), 1 mM EGTA (Sigma, #E-4378), 0.01 mg/ml benzamidine (Sigma #B 6506), 0.01 mg/ml bacitracin (Sigma #B 0125), 0.005 mg/ml leupeptin (Sigma #L 8511), 0.005 mg/ml aprotinin (Sigma #A 1153)) and incubated on ice for 10 minutes. Cells were then lysed with 15 gentle strokes of a tight-fitting glass Dounce homogenizer. The homogenate was centrifuged at 1000×g (2200 rpm) for 10 minutes at 4 degrees Celsius. The supernatant was transferred into fresh centrifuge tubes on ice. The cell pellet was resuspended in homogenization buffer, and centrifuged again at 1000×g (2200 rpm) for 10 minutes at 4 degrees Celsius after which the supernatant was removed and the pellet resuspended in homogenization buffer. This process was repeated a third time, after which the supernatants were combined, Benzonase (Novagen #71206) and MgCl2 (Fluka #63020) were added to final concentrations of 1 U/ml and 6 mM, respectively, and incubated on ice for one hour. The solution was then centrifuged at 25,000×g (15000 rpm) for 20 minutes at 4 degrees Celsius, the supernatant was discarded, and the pellet was resuspended in fresh homogenization buffer (minus Benzonase and MgCl2). After repeating the 25,000×g centrifugation step, the final membrane pellet was resuspended in homogenization buffer and frozen at −80 degrees Celsius. The protein concentration was determined using the Pierce BCA protein assay kit (Pierce reagents A #23223 and B #23224).
Test compounds were serially diluted in 100% DMSO (J. T. Baker #922401). 2 microL of each dilution was added to appropriate wells of a 96-well plate (each concentration in triplicate). Unlabeled Cmpd A, at a final concentration of 10 microM, was used to determine non-specific binding.
^3H-Cmpd A was diluted in binding buffer (50 mM Tris-HCl, pH 7.5, (Sigma #T7443), 10 mM MgCl2 (Fluka 63020), 1 mM EDTA (BioSolutions #BIO260-15), 0.15% bovine serum albumin (Sigma #A7511), 0.01 mg/mL benzamidine (Sigma #B 6506), 0.01 mg/mL bacitracin (Sigma #B 0125), 0.005 mg/mL leupeptin (Sigma #L 8511), 0.005 mg/mL aprotinin (Sigma #A 1153)) to a concentration of 60 nM, and 100 microL added to all wells of 96-well plate (Nalge Nunc #267245).
Membranes expressing GPR119 were thawed and diluted to a final concentration of 20 μg/100 microL per well in Binding Buffer, and 100 microL of diluted membranes were added to each well of 96-well plate. […]

Six compounds from patent US20130072427A1, “GPR 119 MODULATORS” (Pfizer Inc., priority 2009, published 2013) can be followed below.

By Ki is commonly meant the dissociation constant of the complex between target and ligand, obtained from inhibition or displacement. Higher therefore signals lower affinity.

Several values for one entry are separate records, joined by “and”; a condition that tells them apart may be missing. Equal entries are not always repeated.

Compound `Cc1c(O[C@H]2[C@@H]3COC[C@H]2CN(C(=O)OC(C)(C)C)C3)ncnc1N1Cc2cnn(C)c2C1` [Example 9, tert-Butyl (9-anti)-9-{[5-methyl-6-(1-methyl-4,6-dihydropyrrolo[3,4-c]pyrazol-5(1H)-yl)pyrimidin-4-yl]oxy}-3-oxa-7-azabicyclo[3.3.1]nonane-7-carboxylate] came in with a Ki of 51 nM. As for `Cc1c(O[C@H]2CCN(C(=O)OC3(C)CC3)C[C@H]2F)ncnc1N1Cc2cnn(C)c2C1` (racemic) [Example 7, 1-Methylcyclopropyyl (3,4-cis)-3-fluoro-4-{[5-methyl-6-(1-methyl-4,6-dihydropyrrolo[3,4-c]pyrazol-5(1H)-yl)pyrimidin-4-yl]oxy}piperidine-1-carboxylate (racemic)], the Ki is 3.4 nM and 11 nM. On to `Cc1c(O[C@H]2CCN(C(=O)OC(C)(C)C)C[C@@H]2F)ncnc1N1Cc2cnn(C)c2C1` (racemic) [Example 8, tert-Butyl (3,4-trans)-3-fluoro-4-{[5-methyl-6-(1-methyl-4,6-dihydropyrrolo[3,4-c]pyrazol-5(1H)-yl)pyrimidin-4-yl]oxy}piperidine-1-carboxylate (racemic)], for which affinity was put at a Ki of 130 nM. `Cc1c(OC2CCN(C(=O)OC(C)C)CC2)ncnc1N1Cc2cnn(C)c2C1` [Example 2, Isopropyyl 4-{[5-methyl-6-(1-methyl-4,6-dihydropyrrolo[3,4-c]pyrazol-5(1H)-yl)pyrimidin-4-yl]oxy}piperidine-1-carboxylate]: the Ki is 502 nM and 229 nM and 171 nM. As to `Cc1c(O[C@H]2CCN(C(=O)OC(C)(C)C)C[C@H]2F)ncnc1N1Cc2cnn(C)c2C1` (racemic) [Example 6, tert-Butyl (3,4-cis)-3-fluoro-4-{[5-methyl-6-(1-methyl-4,6-dihydropyrrolo[3,4-c]pyrazol-5(1H)-yl)pyrimidin-4-yl]oxy}piperidine-1-carboxylate (racemic)], the Ki came out at 36 nM. As for `CC(C)OC(=O)N1CCC(Oc2ncnc(N3Cc4cnn(C)c4C3)c2C#N)CC1` [Example 3, Isopropyyl 4-{[5-cyano-6-(1-methyl-4,6-dihydropyrrolo[3,4-c]pyrazol-5(1H)-yl)pyrimidin-4-yl]oxy}piperidine-1-carboxylate], the figure is 233 nM.
